Experimental data taken from US20170150719A1, “FUNGICIDAL PYRAZOLES AND THEIR MIXTURES” (E I DU PONT DE NEMOURS AND COMPANY, priority 2010, published 2017).
Marks after values point to notes of the source that are not given here.

Assays:
[1] = test system: Septoria tritici; test: Test F: wheat leaf blotch, preventive spray on wheat seedlings, visual disease rating; type: in vivo; parameters: Test F rating (disease control), value marked *: concentration or dose not given beside the values; conditions: for Test F rating (disease control), value marked *: rating marked with asterisk (*), other test condition, not explained in the text shown; for Test F rating (% disease control): preventive spray, rating without asterisk; for Test F rating (% disease control) / Test F rating (disease control) / pest or weed control at 200 µg/mL: 100 = 100% disease control; for Test F rating (disease control) / pest or weed control at 200 µg/mL: 0 = no disease control relative to the controls; for pest or weed control at 200 µg/mL: Zymoseptoria tritici
Description: (§1) A hyphen (-) indicates no test results.

[2] = test system: Puccinia recondita f. sp. tritici; test: Test G: wheat leaf rust, spray after inoculation (curative) on wheat seedlings, visual disease rating; type: in vivo; conditions: for Test G rating (disease control), value marked * / Test G rating (disease control) / pest or weed control at 200 µg/mL: sprayed after inoculation; for Test G rating (disease control), value marked *: rating marked with asterisk (*), not explained in the text shown; for Test G rating (% disease control): spray after inoculation, rating without asterisk; for Test G rating (% disease control) / Test G rating (disease control) / pest or weed control at 200 µg/mL: 100 = 100% disease control; for Test G rating (disease control) / pest or weed control at 200 µg/mL: 0 = no disease control
Description: as §1

[3] = test system: Puccinia recondita f. sp. tritici; test: Test H: wheat leaf rust, preventive spray on wheat seedlings, visual disease rating; conditions: for Test H rating (disease control), value marked * / Test H rating (% disease control) / Test H rating (disease control): wheat leaf rust; for Test H rating (disease control), value marked *: preventive, rating marked with asterisk (*), not explained in the text shown; for Test H rating (% disease control): preventive spray, rating without asterisk; for Test H rating (% disease control) / Test H rating (disease control) / pest or weed control at 200 µg/mL: 100 = 100% disease control; for Test H rating (disease control): sprayed the day before inoculation; for Test H rating (disease control) / pest or weed control at 200 µg/mL: 0 = no disease control; for pest or weed control at 200 µg/mL: read-out: Test H rating (disease control), wheat leaf rust, sprayed the day before inoculation
[4] = test system: Botrytis cinerea; test: Test A: tomato Botrytis, preventive spray on tomato seedlings, visual disease rating; conditions: for Test A rating (disease control), value marked * / Test A rating (% disease control) / Test A rating (disease control): tomato Botrytis; for Test A rating (disease control), value marked *: rating marked with asterisk (*), other test condition, not explained in the text shown; for Test A rating (% disease control): preventive spray, 0 = no control relative to controls, rating without asterisk; for Test A rating (% disease control) / Test A rating (disease control) / pest or weed control at 200 µg/mL: 100 = 100% disease control; for Test A rating (disease control) / pest or weed control at 200 µg/mL: 0 = no disease control relative to the controls; for pest or weed control at 200 µg/mL: Botrytis cinerea, in Solanum lycopersicum, read-out: Test A rating (disease control), tomato Botrytis
[5] = test system: Alternaria solani; test: Test B: tomato early blight, preventive spray on tomato seedlings, visual disease rating; conditions: for Test B rating (disease control), value marked * / Test B rating (% disease control) / Test B rating (disease control): tomato early blight; for Test B rating (disease control), value marked *: rating marked with asterisk (*), other test condition, not explained in the text shown; for Test B rating (% disease control): preventive spray, rating without asterisk; for Test B rating (% disease control) / Test B rating (disease control): 100 = 100% disease control; for Test B rating (disease control): 0 = no disease control relative to the controls; for pest or weed control at 200 µg/mL: Alternaria solani, in Solanum lycopersicum, read-out: Test B rating (disease control)
Description: General protocol for preparing test suspensions for Tests A-I: the test compounds were first dissolved in acetone in an amount equal to 3% of the final volume and then suspended at the desired concentration (in ppm) in acetone and purified water (50/50 mix by volume) containing 250 ppm of the surfactant Trem® 014 (polyhydric alcohol esters). The resulting test suspensions were then used in Tests A-I. Each test was conducted in triplicate, and the results were averaged. Spraying a 200 ppm test suspension to the point of run-off on the test plants was the equivalent of a rate of about 800 g/ha. Unless otherwise indicated, the rating values indicate a 200 ppm test suspension was used. (An asterisk “*” next to the rating value indicates a 40 ppm test suspension was used.)
The test suspension was sprayed to the point of run-off on tomato seedlings. The following day the seedlings were inoculated with a spore suspension of Alternaria solani (the causal agent of tomato early blight) and incubated in a saturated atmosphere at 27° C. for 48 h, and then moved to a growth chamber at 20° C. for 5 days, after which time visual disease ratings were made.

[6] = test system: Blumeria graminis f. sp. tritici; test: Test I: wheat powdery mildew, preventive spray on wheat seedlings, visual disease rating; conditions: for Test I rating (disease control), value marked * / Test I rating (% disease control) / Test I rating (disease control): wheat powdery mildew; for Test I rating (disease control), value marked *: rating marked with asterisk (*), not explained in the text shown; for Test I rating (% disease control): preventive spray, rating without asterisk; for Test I rating (% disease control) / Test I rating (disease control) / pest or weed control at 200 µg/mL: 100 = 100% disease control; for Test I rating (disease control) / pest or weed control at 200 µg/mL: 0 = no disease control relative to the controls; for pest or weed control at 200 µg/mL: Blumeria graminis, in Triticum aestivum, read-out: Test I rating (disease control), wheat powdery mildew
[7] = test system: Septoria nodorum; test: Test E: Septoria glume blotch, preventive spray on wheat seedlings, visual disease rating; conditions: for Test E rating (disease control), value marked * / Test E rating (disease control): Septoria glume blotch; for Test E rating (disease control), value marked *: rating marked with asterisk (*), other test condition, not explained in the text shown; for Test E rating (% disease control): Septoria glume blotch on wheat, preventive spray, rating without asterisk; for Test E rating (% disease control) / Test E rating (disease control) / pest or weed control at 200 µg/mL: 100 = 100% disease control; for Test E rating (disease control) / pest or weed control at 200 µg/mL: 0 = no disease control relative to the controls; for pest or weed control at 200 µg/mL: Parastagonospora nodorum, in Triticum aestivum, read-out: Test E rating (disease control), Septoria glume blotch

Structure (SMILES)	Test F rating (% disease control) [1]	Test G rating (% disease control) [2]	Test H rating (% disease control) [3]	Test A rating (% disease control) [4]	Test B rating (% disease control) [5]	Test I rating (% disease control) [6]	Test E rating (% disease control) [7]	Test F rating (disease control) [1]	Test G rating (disease control) [2]	Test H rating (disease control) [3]	Test A rating (disease control) [4]	Test B rating (disease control) [5]	Test E rating (disease control) [7]	also measured
Cc1nn(C)c(Oc2c(F)cc(C#N)cc2F)c1-c1c(F)cc(F)cc1F [Compound 8, 4-[[1,3-dimethyl-4-(2,4,6-trifluorophenyl)-1H-pyrazol-5-yl]oxy]-3,5-difluorobenzonitrile]	–	–	–	–	–	–	–	–	–	–	–	–	–	Test F rating (disease control), value marked * [1]: 47* %; Test G rating (disease control), value marked * [2]: 15* %; Test H rating (disease control), value marked * [3]: 79* %; Test A rating (disease control), value marked * [4]: 99* %; Test B rating (disease control), value marked * [5]: 98* %; Test I rating (disease control), value marked * [6]: 60* %; Test E rating (disease control), value marked * [7]: 0* %
Cc1nn(C)c(Nc2c(F)cc(I)cc2F)c1-c1ccc(F)cc1Br [compound 218]	100%	0%	99%	100%	68%	99%	86%	–	–	–	–	–	–	–
Cc1nn(C)c(Nc2c(F)cc(F)cc2Cl)c1-c1ccc(Cl)cc1F [compound 228]	100%	0%	96%	68%	40%	81%	0%	–	–	–	–	–	–	–
Cc1nn(C)c(Nc2c(F)cc(F)cc2I)c1-c1ccc(F)cc1Br [compound 215]	100%	100%	100%	100%	100%	100%	99%	–	–	–	–	–	–	–
Cc1nn(C)c(Nc2c(F)cc(Br)cc2Br)c1-c1ccc(F)cc1Cl [compound 212]	100%	97%	100%	98%	100%	100%	100%	–	–	–	–	–	–	–
COc1cc(F)c(-c2c(C)nn(C)c2Oc2c(F)cc(Br)cc2F)c(F)c1 [compound 24]	–	–	–	–	–	–	–	100%	0%	98%	99%	95%	84%	Test I rating (disease control) [6]: 100%
Cc1nn(C)c(Nc2c(Cl)cc(F)cc2Cl)c1-c1ccc(Cl)cc1F [compound 227]	100%	0%	95%	0%	0%	96%	0%	–	–	–	–	–	–	–
COc1ccc(-c2c(C)nn(C)c2Nc2c(F)cc(F)cc2F)c(Cl)c1 [compound 29]	–	–	–	–	–	–	–	99%	99%	99%	100%	99%	97%	Test I rating (disease control) [6]: 100%
COc1cc(Cl)c(Nc2c(-c3ccc(F)cc3Cl)c(C)nn2C)c(Cl)c1 [compound 85]	–	–	–	–	–	–	–	100%	0%	99%	99%	0%	0%	Test I rating (disease control), value marked * [6]: 99* %
CCOc1ccc(-c2c(C)nn(C)c2Nc2c(Cl)cc(F)cc2Cl)c(Cl)c1 [compound 208]	99%	0%	85%	18%	0%	27%	0%	–	–	–	–	–	–	–
Cc1nn(C)c(Nc2c(F)cc(F)cc2Br)c1-c1ccc(Cl)cc1F [compound 229]	100%	9%	97%	99%	99%	98%	64%	–	–	–	–	–	–	–
Cc1nn(C)c(Oc2ccc(Cl)cc2F)c1-c1ccc(F)cc1Cl [compound 158]	–	–	–	–	–	–	–	–	–	–	–	–	–	Test F rating (disease control), value marked * [1]: 99* %; Test G rating (disease control), value marked * [2]: 37* %; Test H rating (disease control), value marked * [3]: 98* %; Test A rating (disease control), value marked * [4]: 100* %; Test B rating (disease control), value marked * [5]: 80* %; Test I rating (disease control), value marked * [6]: 96* %; Test E rating (disease control), value marked * [7]: 0* %
Cc1nn(C)c(Nc2c(F)cc(F)cc2I)c1-c1ccc(F)cc1Cl [compound 213]	100%	100%	100%	100%	100%	100%	100%	–	–	–	–	–	–	–
Cc1nn(C)c(Nc2ccc(F)cc2Br)c1-c1ccc(F)cc1F [Compound 118, N-(2-bromo-4-fluorophenyl)-4-(2,4-difluorophenyl)-1,3-dimethyl-1H-pyrazol-5-amine]	–	–	–	–	–	–	–	–	–	–	–	–	–	pest or weed control at 200 µg/mL [1]: 100%; pest or weed control at 200 µg/mL [2]: 75%; pest or weed control at 200 µg/mL [3]: 97%; pest or weed control at 200 µg/mL [4]: 100%; pest or weed control at 200 µg/mL [5]: 93%; pest or weed control at 200 µg/mL [6]: 100%; pest or weed control at 200 µg/mL [7]: 69%
Cc1nn(C)c(Nc2ccc(C#N)cc2Cl)c1-c1ccc(F)cc1Cl [compound 44]	–	–	–	–	–	–	–	99%	8%	98%	99%	0%	0%	Test I rating (disease control) [6]: 94%
Cc1nn(C)c(Nc2c(F)cc(I)cc2F)c1-c1ccc(F)cc1Cl [compound 217]	100%	41%	99%	100%	58%	99%	86%	–	–	–	–	–	–	–
COc1ccc(-c2c(C)nn(C)c2Oc2ccc(C#N)cc2F)c(Br)c1 [compound 100]	–	–	–	–	–	–	–	100%	0%	99%	92%	88%	100%	Test I rating (disease control) [6]: 95%
Cc1nn(C)c(Nc2c(F)cc(F)cc2F)c1-c1ccc(F)cc1Cl [Compound 4, 4-(2-chloro-4-fluorophenyl)-1,3-dimethyl-N-(2,4,6-trifluorophenyl)-1H-pyrazol-5-amine]	–	–	–	–	–	–	–	–	–	–	–	–	–	pest or weed control at 200 µg/mL [1]: 95%; pest or weed control at 200 µg/mL [2]: 99%; pest or weed control at 200 µg/mL [3]: 100%; pest or weed control at 200 µg/mL [4]: 99%; pest or weed control at 200 µg/mL [5]: 100%; pest or weed control at 200 µg/mL [6]: 100%; pest or weed control at 200 µg/mL [7]: 99%
Cc1nn(C)c(Nc2ccc(F)cc2F)c1-c1c(F)cccc1F [compound 49]	–	–	–	–	–	–	–	98%	0%	83%	100%	100%	80%	Test I rating (disease control) [6]: 100%
Cc1nn(C)c(Nc2c(F)cc(C#N)cc2F)c1-c1ccc(F)cc1Cl [Compound 25, 4-[[4-(2-chloro-4-fluorophenyl)-1,3-dimethyl-1H-pyrazol-5-yl]amino]-3,5-difluorobenzonitrile]	–	–	–	–	–	–	–	–	–	–	–	–	–	pest or weed control at 200 µg/mL [1]: 99%; pest or weed control at 200 µg/mL [2]: 0%; pest or weed control at 200 µg/mL [3]: 100%; pest or weed control at 200 µg/mL [4]: 100%; pest or weed control at 200 µg/mL [5]: 99%; pest or weed control at 200 µg/mL [6]: 100%; pest or weed control at 200 µg/mL [7]: 95%
